Measured values: US4018801A, “Substituted oxirane compounds” (The Dow Chemical Company, priority 1975, dated 1977)

What was measured:
Format in all cases: in vivo
Johnson Grass = assay: Post-emergent control, foliage spray; conditions: about two weeks
Description: (§1) An aqueous composition containing 2-(m-bromophenyl)- 2-(2,2,2-trichloroethyl)oxirane was prepared as described in Example 32. Separate portions of this composition were thereafter dispersed in a further quantity of water to prepare aqueous spray compositions containing 250, 500, 1000, 2000 and 4000 parts, respectively of the compound per million parts by weight of ultimate treating composition. These compositions were applied as foliage sprays to various grass and broadleaf plant species, the plants being of two to four inches in height and growing in seed beds. The treatments were carried out with conventional spray equipment, the plants being sprayed to the point of run-off. Similar beds of the plant species were left untreated to serve as checks. After about two weeks, the beds were examined to ascertain what control of the growth of plants had been obtained. The plant species employed, together with the percent control obtained at the employed dosage rate of the composition is set forth in the following Table V.

Soybean = assay: Post-emergent control, foliage spray; conditions: about two weeks
Description: as §1

Barnyard Grass [1] = assay: Post-emergent control, foliage spray; conditions: about two weeks
Description: as §1

Cultured Rice = assay: Post-emergent control, foliage spray; conditions: about two weeks
Description: as §1

Wild Oats [2] = assay: Post-emergent control, foliage spray; conditions: about two weeks
Description: as §1

Yellow Foxtail = assay: Post-emergent control, foliage spray; conditions: about two weeks
Description: as §1

Corn = assay: Post-emergent control, foliage spray; conditions: about two weeks
Description: as §1

Pinto Beans = assay: Post-emergent control, foliage spray; conditions: about two weeks
Description: as §1

Crabgrass = assay: Post-emergent control, foliage spray; conditions: about two weeks
Description: as §1

White Winter Wheat = assay: Post-emergent control, foliage spray; conditions: about two weeks
Description: as §1

Cotton = assay: Post-emergent control, foliage spray; conditions: about two weeks
Description: as §1

Barnyard Grass [3] = assay: Pre-emergent control of seed germination, soil drench; conditions: Barnyard Grass, about 2 weeks
In short: (§2)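 Compound formulated with Span 85/Tween 80 in acetone, dispersed in water, and applied as a soil drench to seeded beds at 1.0, 2.0 and 5.0 lb/acre (about 1.6, 3.2, 8.0 ppm soil); lower concentrations also tested. Germination control scored versus untreated checks after about 2 weeks.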

Wild Oats [4] = assay: as above; conditions: Wild Oats, about 2 weeks
In short: as §2

Pigweeds = assay: as above; conditions: Pig Weeds, about 2 weeks
In short: as §2

Water-Grass = assay: Comparative pre-emergence herbicide test
Source text: Four parts by weight of the compound, 0.08 part of sorbitan trioleate (Span 85), and 0.02 part of a sorbitan monooleate polyoxyethylene derivative (Tween 80) are dipersed in 40 milliliters of acetone to produce a concentrate composition in the form of a water-dispersible liquid containing the predetermined oxirane compound as the sole active agent.
A portion of each of these concentrate compositions were separately dispersed in portions of water to provide aqueous compositions, containing 0.44 pound of the oxirane compound per 100 gallons of ultimate aqueous mixture.
The aqueous compositions were then employed for the treatment of seed beds of good agricultural soil which had been prepared and seeded with the seeds of various grass species and broadleaf plants. The grass species included white winter wheat, cultured rice, pigweeds, crabgrass, cheat grass, wild oats, Johnson grass, barnyard grass and yellow foxtail; and the broadleaf plants included corn. In the treating operations, a predetermined quantity of each of the compositions was applied to separate seedbeds as a soil drench at a rate of about 0.43 acre inch of aqueous composition per acre. The quantities were controlled to supply a substantial uniform dosage in a seedbed equivalent to 1.0, 2.0 and 5.0 pounds of the oxirane compound per acre. These dosages correspond, respectively, to a concentration, within the soil depth penetrated of about 1.6, 3.2 and 8.0 parts by weight of the oxirane compound per million parts by weight of soil. Other seedbeds were similarly seeded with the named plant species but were left untreated to serve as checks.
After about 2 weeks the seedbeds were examined to ascertain what control of the growth of seeds had been obtained.
Separate aqueous compositions containing the 2-(m-chlorophenyl)-2-(2,2,2-trichloroethyl)oxirane (Cmpd. A) and 2-(m-bromophenyl)-2-(2,2,2-trichloroethyl)oxirane (Cmpd. C) compounds of the present invention were prepared as in Example 32 for comparative per-emergence herbicide tests against noxious grass species with the known 2 -(p-chlorophenyl)-2-(2,2,2-trichloroethyl)oxirane (Cmpd. B) compound and 2-(p-bromophenyl)-2-(2,2,2-trichloroethyl)oxirane (Cmpd. D). The pre-emergence tests were conducted in Example 32 and the results of such tests are set forth below in Table III.

ClC(Cl)(Cl)CC1(c2cccc(Br)c2)CO1 (stereo not drawn) [Example 3, 2-(m-bromophenyl)-2-(2,2,2-trichloroethyl)oxirane]
Percent Post-Emergent Control of Seed Germination (Johnson Grass; 250 parts per million): 95% | Percent Post-Emergent Control of Seed Germination (Johnson Grass; 500 parts per million): 95% | Percent Post-Emergent Control of Seed Germination (Johnson Grass; 1000 parts per million): 95% | Percent Post-Emergent Control of Seed Germination (Johnson Grass; 2000 parts per million): 95% | Percent Post-Emergent Control of Seed Germination (Johnson Grass; 4000 parts per million): 95% | Percent Post-Emergent Control of Seed Germination (Soybean; 250 parts per million): 30% | Percent Post-Emergent Control of Seed Germination (Soybean; 500 parts per million): 30% | Percent Post-Emergent Control of Seed Germination (Soybean; 1000 parts per million): 50% | Percent Post-Emergent Control of Seed Germination (Soybean; 2000 parts per million): 75% | Percent Post-Emergent Control of Seed Germination (Soybean; 4000 parts per million): 85% | Percent Post-Emergent Control of Seed Germination (Barnyard Grass [1]; 250 parts per million): 95% | Percent Post-Emergent Control of Seed Germination (Barnyard Grass [1]; 500 parts per million): 95% | Percent Post-Emergent Control of Seed Germination (Barnyard Grass [1]; 1000 parts per million): 95% | Percent Post-Emergent Control of Seed Germination (Barnyard Grass [1]; 2000 parts per million): 95% | Percent Post-Emergent Control of Seed Germination (Barnyard Grass [1]; 4000 parts per million): 95% | Percent Post-Emergent Control of Seed Germination (Cultured Rice; 250 parts per million): 0% | Percent Post-Emergent Control of Seed Germination (Cultured Rice; 500 parts per million): 0% | Percent Post-Emergent Control of Seed Germination (Cultured Rice; 1000 parts per million): 0% | Percent Post-Emergent Control of Seed Germination (Cultured Rice; 2000 parts per million): 40% | Percent Post-Emergent Control of Seed Germination (Cultured Rice; 4000 parts per million): 50% | Percent Post-Emergent Control of Seed Germination (Wild Oats [2]; 250 parts per million): 50% | Percent Post-Emergent Control of Seed Germination (Wild Oats [2]; 500 parts per million): 70% | Percent Post-Emergent Control of Seed Germination (Wild Oats [2]; 1000 parts per million): 85% | Percent Post-Emergent Control of Seed Germination (Wild Oats [2]; 2000 parts per million): 85% | Percent Post-Emergent Control of Seed Germination (Wild Oats [2]; 4000 parts per million): 95% | Percent Post-Emergent Control of Seed Germination (Yellow Foxtail; 250 parts per million): 40% | Percent Post-Emergent Control of Seed Germination (Yellow Foxtail; 500 parts per million): 95% | Percent Post-Emergent Control of Seed Germination (Yellow Foxtail; 1000 parts per million): 95% | Percent Post-Emergent Control of Seed Germination (Yellow Foxtail; 2000 parts per million): 95% | Percent Post-Emergent Control of Seed Germination (Yellow Foxtail; 4000 parts per million): 95% | Percent Post-Emergent Control of Seed Germination (Corn; 250 parts per million): 0% | Percent Post-Emergent Control of Seed Germination (Corn; 500 parts per million): 30% | Percent Post-Emergent Control of Seed Germination (Corn; 1000 parts per million): 50% | Percent Post-Emergent Control of Seed Germination (Corn; 2000 parts per million): 95% | Percent Post-Emergent Control of Seed Germination (Corn; 4000 parts per million): 95% | Percent Post-Emergent Control of Seed Germination (Pinto Beans; 250 parts per million): 50% | Percent Post-Emergent Control of Seed Germination (Pinto Beans; 500 parts per million): 50% | Percent Post-Emergent Control of Seed Germination (Pinto Beans; 1000 parts per million): 50% | Percent Post-Emergent Control of Seed Germination (Pinto Beans; 2000 parts per million): 75% | Percent Post-Emergent Control of Seed Germination (Pinto Beans; 4000 parts per million): 75% | Percent Post-Emergent Control of Seed Germination (Crabgrass; 250 parts per million): 30% | Percent Post-Emergent Control of Seed Germination (Crabgrass; 500 parts per million): 65% | Percent Post-Emergent Control of Seed Germination (Crabgrass; 1000 parts per million): 95% | Percent Post-Emergent Control of Seed Germination (Crabgrass; 2000 parts per million): 95% | Percent Post-Emergent Control of Seed Germination (Crabgrass; 4000 parts per million): 95% | Percent Post-Emergent Control of Seed Germination (White Winter Wheat; 250 parts per million): 0% | Percent Post-Emergent Control of Seed Germination (White Winter Wheat; 500 parts per million): 0% | Percent Post-Emergent Control of Seed Germination (White Winter Wheat; 1000 parts per million): 50% | Percent Post-Emergent Control of Seed Germination (White Winter Wheat; 2000 parts per million): 50% | Percent Post-Emergent Control of Seed Germination (White Winter Wheat; 4000 parts per million): 50% | Percent Post-Emergent Control of Seed Germination (Cotton; 250 parts per million): 0% | Percent Post-Emergent Control of Seed Germination (Cotton; 500 parts per million): 0% | Percent Post-Emergent Control of Seed Germination (Cotton; 1000 parts per million): 50% | Percent Post-Emergent Control of Seed Germination (Cotton; 2000 parts per million): 50% | Percent Post-Emergent Control of Seed Germination (Cotton; 4000 parts per million): 65% | Percent Pre-Emergent Control of Seed Germination (Barnyard Grass [3]; 1.0 pounds per surface acre): 95% | Percent Pre-Emergent Control of Seed Germination (Barnyard Grass [3]; 2.0 pounds per surface acre): 95% | Percent Pre-Emergent Control of Seed Germination (Barnyard Grass [3]; 5.0 pounds per surface acre): 95% | Percent Pre-Emergent Control of Seed Germination (Wild Oats [4]; 1.0 pounds per surface acre): 100% | Percent Pre-Emergent Control of Seed Germination (Wild Oats [4]; 2.0 pounds per surface acre): 100% | Percent Pre-Emergent Control of Seed Germination (Wild Oats [4]; 5.0 pounds per surface acre): 100% | Percent Pre-Emergent Control of Seed Germination (Pigweeds; 1.0 pounds per surface acre): 95% | Percent Pre-Emergent Control of Seed Germination (Pigweeds; 2.0 pounds per surface acre): 100% | Percent Pre-Emergent Control of Seed Germination (Pigweeds; 5.0 pounds per surface acre): 100% | % Control (Water-Grass; 1/8 Lb/Acre): 95% | % Control (Water-Grass; 1/16 Lb/Acre): 90%
